Measured values from ChEMBL document CHEMBL4819137, “Huprine Y - Tryptophan heterodimers with potential implication to Alzheimer's disease treatment” (Bioorg Med Chem Lett, 2021).

Experiments:
Nitric oxide synthase 1 [1] = biological target: T1, Nitric oxide synthase 1 (Homo sapiens, UniProt P29475)
Description: Inhibition of recombinant human nNOS

Nitric oxide synthase 1 [2] = biological target: T1, Nitric oxide synthase 1; remark: listed apart in the source
Description: Inhibition of recombinant human nNOS

Acetylcholinesterase [3] = biological target: T2, Acetylcholinesterase (Homo sapiens, UniProt P22303)
Description: Inhibition of recombinant human AChE using acetylthiocholine as substrate by DTNB-reagent based Ellman's method

Cholinesterase = Cholinesterase (Homo sapiens, UniProt P06276)
Description: Inhibition of recombinant human BuChE using butyrylthiocholine as substrate by Ellman's method

HepG2 = experiment: cells; conditions: Homo sapiens, HepG2, 24 h
Description: Cytotoxicity against human HepG2 cells assessed as reduction in cell viability measured after 24 hrs by MTT assay

Acetylcholinesterase [4] = biological target: T2, Acetylcholinesterase; experiment: Non competitive type inhibition of human AChE assessed as inhibition constant using varying levels of acetylthiocholine as substrate by double reciprocal Lineweaver-Burk plot analysis

T1 sequence (P29475 whole entry): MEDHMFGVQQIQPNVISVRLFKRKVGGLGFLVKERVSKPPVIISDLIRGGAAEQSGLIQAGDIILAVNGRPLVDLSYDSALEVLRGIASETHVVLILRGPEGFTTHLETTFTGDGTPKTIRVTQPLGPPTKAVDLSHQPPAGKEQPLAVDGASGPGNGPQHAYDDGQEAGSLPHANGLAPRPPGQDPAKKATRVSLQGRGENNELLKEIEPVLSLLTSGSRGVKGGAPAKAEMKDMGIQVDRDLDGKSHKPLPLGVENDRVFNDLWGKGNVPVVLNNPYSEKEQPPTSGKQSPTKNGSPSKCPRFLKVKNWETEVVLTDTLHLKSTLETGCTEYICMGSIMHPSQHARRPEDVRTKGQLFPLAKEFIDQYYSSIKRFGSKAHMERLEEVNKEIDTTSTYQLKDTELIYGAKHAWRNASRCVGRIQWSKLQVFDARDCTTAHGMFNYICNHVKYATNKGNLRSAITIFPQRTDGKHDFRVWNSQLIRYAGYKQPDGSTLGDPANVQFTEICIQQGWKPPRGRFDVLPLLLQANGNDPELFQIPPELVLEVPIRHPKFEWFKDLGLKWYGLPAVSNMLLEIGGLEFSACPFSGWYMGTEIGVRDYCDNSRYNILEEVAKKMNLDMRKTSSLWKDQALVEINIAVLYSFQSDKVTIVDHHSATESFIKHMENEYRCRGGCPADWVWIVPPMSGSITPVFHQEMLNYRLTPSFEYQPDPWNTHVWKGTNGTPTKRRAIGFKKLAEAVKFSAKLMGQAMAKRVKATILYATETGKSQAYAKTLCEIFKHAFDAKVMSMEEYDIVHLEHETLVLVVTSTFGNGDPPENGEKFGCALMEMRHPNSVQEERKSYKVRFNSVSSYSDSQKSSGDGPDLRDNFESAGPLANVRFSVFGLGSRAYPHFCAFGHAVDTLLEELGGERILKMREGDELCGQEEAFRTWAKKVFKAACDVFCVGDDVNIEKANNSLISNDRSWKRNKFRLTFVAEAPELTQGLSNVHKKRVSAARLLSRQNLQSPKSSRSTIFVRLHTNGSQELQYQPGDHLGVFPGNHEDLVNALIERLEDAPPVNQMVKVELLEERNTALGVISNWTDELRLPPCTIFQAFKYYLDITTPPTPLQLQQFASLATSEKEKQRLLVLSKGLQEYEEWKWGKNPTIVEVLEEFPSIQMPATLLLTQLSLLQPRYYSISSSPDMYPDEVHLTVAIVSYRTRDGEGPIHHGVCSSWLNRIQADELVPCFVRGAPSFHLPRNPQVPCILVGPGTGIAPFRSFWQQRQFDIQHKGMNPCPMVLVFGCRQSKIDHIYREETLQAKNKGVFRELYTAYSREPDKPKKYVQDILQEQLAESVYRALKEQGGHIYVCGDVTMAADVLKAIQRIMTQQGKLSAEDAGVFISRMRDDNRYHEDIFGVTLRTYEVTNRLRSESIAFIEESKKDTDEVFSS
T2 sequence (P22303 whole entry): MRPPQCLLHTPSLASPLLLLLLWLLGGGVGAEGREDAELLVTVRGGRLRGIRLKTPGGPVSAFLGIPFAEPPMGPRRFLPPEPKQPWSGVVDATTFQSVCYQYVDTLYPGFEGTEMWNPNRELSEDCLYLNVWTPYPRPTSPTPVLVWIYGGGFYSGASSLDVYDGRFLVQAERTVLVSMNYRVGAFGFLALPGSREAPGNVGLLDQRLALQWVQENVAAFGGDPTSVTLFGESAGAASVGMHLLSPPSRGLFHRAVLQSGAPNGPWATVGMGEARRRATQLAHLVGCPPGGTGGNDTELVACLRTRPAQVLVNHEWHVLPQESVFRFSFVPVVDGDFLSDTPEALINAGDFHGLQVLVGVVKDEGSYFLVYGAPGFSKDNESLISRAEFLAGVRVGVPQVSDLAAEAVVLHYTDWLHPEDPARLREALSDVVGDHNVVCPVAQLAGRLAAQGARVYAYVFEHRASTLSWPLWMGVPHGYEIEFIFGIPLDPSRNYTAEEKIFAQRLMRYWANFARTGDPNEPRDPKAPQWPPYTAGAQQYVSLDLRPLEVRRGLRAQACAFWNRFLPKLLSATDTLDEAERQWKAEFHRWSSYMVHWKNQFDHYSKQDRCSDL
Sequence of Cholinesterase (P06276 whole entry): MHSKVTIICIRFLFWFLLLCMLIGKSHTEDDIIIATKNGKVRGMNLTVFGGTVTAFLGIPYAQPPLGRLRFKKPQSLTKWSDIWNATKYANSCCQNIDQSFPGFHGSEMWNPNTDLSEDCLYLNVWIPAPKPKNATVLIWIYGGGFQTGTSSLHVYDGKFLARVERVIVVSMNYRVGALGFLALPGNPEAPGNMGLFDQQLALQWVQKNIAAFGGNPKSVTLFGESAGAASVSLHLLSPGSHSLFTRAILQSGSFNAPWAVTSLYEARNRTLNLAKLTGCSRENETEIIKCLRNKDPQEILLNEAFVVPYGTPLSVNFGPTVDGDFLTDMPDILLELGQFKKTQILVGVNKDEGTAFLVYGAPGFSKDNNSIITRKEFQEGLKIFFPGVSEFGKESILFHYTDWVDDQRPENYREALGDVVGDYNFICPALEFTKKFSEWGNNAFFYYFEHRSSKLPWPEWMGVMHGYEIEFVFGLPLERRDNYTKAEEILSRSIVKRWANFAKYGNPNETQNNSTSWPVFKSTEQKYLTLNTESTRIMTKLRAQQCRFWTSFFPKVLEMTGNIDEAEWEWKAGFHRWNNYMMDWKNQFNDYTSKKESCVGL

| SMILES | IC50 (Nitric oxide synthase 1 [1]) | IC50 (Nitric oxide synthase 1 [2]) [µM] | IC50 (Acetylcholinesterase [3]) [µM] | IC50 (Cholinesterase) [µM] | IC50 (HepG2) [µM] | Ki (Acetylcholinesterase [4]) [µM] |
| --- | --- | --- | --- | --- | --- | --- |
| N[C@@H](Cc1c[nH]c2ccccc12)C(=O)NCCCCCCNc1c2c(nc3cc(Cl)ccc13)CCCC2 |  | 26 |  |  |  |  |
| CC1=CC2Cc3nc4cc(Cl)ccc4c(NCCCCCCNC(=O)[C@@H](N)Cc4c[nH]c5ccccc45)c3C(C1)C2 (some centres undefined) |  | 18.5 | 0.0117 | 0.0457 | 5.63 | 0.023 |
| CC1=CC2Cc3nc4cc(Cl)ccc4c(NCCCCCNC(=O)[C@@H](N)Cc4c[nH]c5ccccc45)c3C(C1)C2 (some centres undefined) |  | 24 | 0.0227 | 0.0683 | 4.77 |  |
| CC1=CC2Cc3nc4cc(Cl)ccc4c(NCCCCCCCNC(=O)[C@@H](N)Cc4c[nH]c5ccccc45)c3C(C1)C2 (some centres undefined) |  | 35 | 0.0121 | 0.0845 | 12.3 |  |
| COc1ccc2nc3c(c(N)c2c1)C1CC(C)=CC(C3)C1 (racemic) |  | 32 |  |  | 14.9 |  |
| CC1=CC2Cc3nc4cc(Cl)ccc4c(N)c3C(C1)C2 (racemic) |  |  |  |  | 15.9 |  |

The next lines start with results.

| IC50 (Nitric oxide synthase 1 [1]) | SMILES | IC50 (Nitric oxide synthase 1 [2]) [µM] | IC50 (Acetylcholinesterase [3]) [µM] | IC50 (Cholinesterase) [µM] | IC50 (HepG2) [µM] | Ki (Acetylcholinesterase [4]) [µM] |
| --- | --- | --- | --- | --- | --- | --- |
| Not Active | COc1ccc2nc3c(c(N)c2c1)CCCC3 |  |  |  |  |  |
| Not Active | Nc1c2c(nc3cc(Cl)ccc13)CCCC2 |  |  |  |  |  |
